Test results published in patent US9592221B2, “Antibacterial agents: aryl myxopyronin derivatives” (priority 2012, dated 2017).

What was measured:
[1] = tested on: Brucella melitensis 16M; assay: microbe, parasite or virus in culture; assay type: cell-based; conditions: Brucella melitensis, 16M, read-out: MIC B. melitensis 16M
[2] = tested on: Yersinia pestis C092; assay: microbe, parasite or virus in culture; assay type: cell-based; conditions: Yersinia pestis, C092, read-out: MIC Y. pestis C092
[3] = tested on: Mycobacterium tuberculosis H37Rv; assay: MIC, microplate Alamar Blue assay, M. tuberculosis; assay type: cell-based
[4] = tested on: Bacillus anthracis Vollum 1b; assay: microbe, parasite or virus in culture; assay type: cell-based; conditions: Bacillus anthracis, VOLLUM1B, read-out: MIC B. anthracis Vollum-1b
[5] = target: E. coli RNA polymerase σ^70 holoenzyme (Escherichia coli, UniProt P0A8T7+P0A8V2); assay: Fluorescence-detected RNA polymerase assay, E. coli RNA polymerase; assay type: biochemical; conditions: read-out: IC50 E. coli RNAP
Chain of E. coli RNA polymerase σ^70 holoenzyme (P0A8T7 whole entry): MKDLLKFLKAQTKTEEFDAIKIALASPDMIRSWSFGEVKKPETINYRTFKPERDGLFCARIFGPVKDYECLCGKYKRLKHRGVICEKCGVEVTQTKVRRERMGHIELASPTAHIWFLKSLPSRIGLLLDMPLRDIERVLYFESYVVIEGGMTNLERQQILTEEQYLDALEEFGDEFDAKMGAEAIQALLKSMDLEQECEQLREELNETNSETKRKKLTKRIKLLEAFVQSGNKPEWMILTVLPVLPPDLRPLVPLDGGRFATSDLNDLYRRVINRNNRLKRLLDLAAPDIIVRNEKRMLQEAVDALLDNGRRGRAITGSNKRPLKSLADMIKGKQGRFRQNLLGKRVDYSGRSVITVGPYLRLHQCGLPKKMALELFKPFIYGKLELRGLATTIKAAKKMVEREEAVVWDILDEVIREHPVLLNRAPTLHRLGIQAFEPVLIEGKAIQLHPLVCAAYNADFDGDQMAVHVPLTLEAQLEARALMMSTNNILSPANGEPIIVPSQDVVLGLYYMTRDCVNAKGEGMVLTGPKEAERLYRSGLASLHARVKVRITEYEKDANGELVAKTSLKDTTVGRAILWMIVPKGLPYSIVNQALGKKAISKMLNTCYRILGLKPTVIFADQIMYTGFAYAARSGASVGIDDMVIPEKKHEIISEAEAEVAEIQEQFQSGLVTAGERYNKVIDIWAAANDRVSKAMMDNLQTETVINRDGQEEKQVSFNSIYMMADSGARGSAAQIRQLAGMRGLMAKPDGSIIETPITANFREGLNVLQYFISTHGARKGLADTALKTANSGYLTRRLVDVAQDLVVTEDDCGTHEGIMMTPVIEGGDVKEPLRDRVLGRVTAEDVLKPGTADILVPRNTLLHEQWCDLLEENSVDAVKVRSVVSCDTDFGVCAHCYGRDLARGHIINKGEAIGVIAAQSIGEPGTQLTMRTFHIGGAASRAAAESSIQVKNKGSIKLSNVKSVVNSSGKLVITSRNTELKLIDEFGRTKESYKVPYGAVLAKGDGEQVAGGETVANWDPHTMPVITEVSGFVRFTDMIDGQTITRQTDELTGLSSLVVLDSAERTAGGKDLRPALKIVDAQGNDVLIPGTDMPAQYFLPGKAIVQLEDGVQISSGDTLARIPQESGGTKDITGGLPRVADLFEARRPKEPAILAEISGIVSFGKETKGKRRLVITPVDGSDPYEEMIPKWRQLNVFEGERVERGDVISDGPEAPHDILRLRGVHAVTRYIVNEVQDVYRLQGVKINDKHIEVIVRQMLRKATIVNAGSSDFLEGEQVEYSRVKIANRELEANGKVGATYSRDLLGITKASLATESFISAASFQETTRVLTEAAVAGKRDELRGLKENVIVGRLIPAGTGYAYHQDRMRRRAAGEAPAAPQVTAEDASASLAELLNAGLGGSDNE
Chain of E. coli RNA polymerase σ^70 holoenzyme (P0A800 whole entry, further chain): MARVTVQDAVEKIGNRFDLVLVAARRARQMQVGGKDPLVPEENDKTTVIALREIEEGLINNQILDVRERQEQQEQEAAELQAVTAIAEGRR
Chain of E. coli RNA polymerase σ^70 holoenzyme (P0A8V2 whole entry): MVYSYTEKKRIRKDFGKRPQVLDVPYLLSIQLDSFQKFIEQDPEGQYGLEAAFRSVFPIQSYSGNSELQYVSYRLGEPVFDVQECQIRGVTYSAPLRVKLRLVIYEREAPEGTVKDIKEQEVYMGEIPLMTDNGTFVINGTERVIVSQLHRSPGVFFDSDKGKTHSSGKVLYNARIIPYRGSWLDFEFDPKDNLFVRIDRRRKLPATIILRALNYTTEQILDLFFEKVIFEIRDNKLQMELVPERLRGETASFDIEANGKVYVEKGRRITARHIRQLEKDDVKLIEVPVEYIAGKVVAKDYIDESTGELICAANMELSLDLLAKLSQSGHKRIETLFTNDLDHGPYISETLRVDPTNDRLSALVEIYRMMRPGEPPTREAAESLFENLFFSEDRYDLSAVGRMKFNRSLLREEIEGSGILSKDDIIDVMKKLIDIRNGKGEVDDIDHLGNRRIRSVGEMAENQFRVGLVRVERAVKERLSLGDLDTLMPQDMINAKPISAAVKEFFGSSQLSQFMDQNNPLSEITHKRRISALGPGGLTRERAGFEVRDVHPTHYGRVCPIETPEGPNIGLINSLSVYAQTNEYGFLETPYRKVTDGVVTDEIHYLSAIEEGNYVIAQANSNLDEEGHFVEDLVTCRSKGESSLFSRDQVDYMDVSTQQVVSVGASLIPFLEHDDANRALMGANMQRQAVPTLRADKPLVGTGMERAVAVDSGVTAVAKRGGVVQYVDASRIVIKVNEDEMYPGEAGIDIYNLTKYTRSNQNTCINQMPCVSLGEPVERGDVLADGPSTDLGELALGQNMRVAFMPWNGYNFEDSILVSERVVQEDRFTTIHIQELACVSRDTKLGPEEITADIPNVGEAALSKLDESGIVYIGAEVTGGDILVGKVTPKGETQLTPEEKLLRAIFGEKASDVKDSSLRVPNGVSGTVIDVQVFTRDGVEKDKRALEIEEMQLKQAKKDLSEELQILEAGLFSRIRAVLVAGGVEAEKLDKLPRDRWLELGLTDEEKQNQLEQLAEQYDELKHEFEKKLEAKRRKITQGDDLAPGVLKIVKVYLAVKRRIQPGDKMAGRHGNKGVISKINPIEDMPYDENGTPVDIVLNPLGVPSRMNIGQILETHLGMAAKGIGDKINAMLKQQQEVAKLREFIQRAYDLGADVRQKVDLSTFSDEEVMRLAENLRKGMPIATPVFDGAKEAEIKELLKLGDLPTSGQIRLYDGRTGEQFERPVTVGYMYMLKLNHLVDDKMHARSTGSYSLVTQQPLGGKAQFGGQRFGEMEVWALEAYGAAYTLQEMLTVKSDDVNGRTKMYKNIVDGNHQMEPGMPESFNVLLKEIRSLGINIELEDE
Chain of E. coli RNA polymerase σ^70 holoenzyme (P00579 whole entry, further chain): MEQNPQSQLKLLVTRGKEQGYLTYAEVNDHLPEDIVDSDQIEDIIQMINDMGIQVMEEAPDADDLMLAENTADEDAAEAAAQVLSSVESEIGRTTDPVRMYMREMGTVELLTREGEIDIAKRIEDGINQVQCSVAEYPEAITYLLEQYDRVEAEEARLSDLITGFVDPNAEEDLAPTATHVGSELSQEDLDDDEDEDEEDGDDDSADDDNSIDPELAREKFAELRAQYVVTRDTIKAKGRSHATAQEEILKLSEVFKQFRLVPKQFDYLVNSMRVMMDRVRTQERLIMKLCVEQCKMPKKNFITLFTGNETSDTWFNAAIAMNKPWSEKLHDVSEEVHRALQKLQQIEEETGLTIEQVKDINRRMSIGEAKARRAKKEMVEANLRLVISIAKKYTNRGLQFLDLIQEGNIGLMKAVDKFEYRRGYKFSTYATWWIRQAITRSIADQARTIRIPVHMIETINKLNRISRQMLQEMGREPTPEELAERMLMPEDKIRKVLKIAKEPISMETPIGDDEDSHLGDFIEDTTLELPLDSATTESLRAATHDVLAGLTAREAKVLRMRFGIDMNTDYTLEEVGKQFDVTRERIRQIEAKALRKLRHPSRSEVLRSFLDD
Chain of E. coli RNA polymerase σ^70 holoenzyme (P0A7Z4 whole entry, further chain): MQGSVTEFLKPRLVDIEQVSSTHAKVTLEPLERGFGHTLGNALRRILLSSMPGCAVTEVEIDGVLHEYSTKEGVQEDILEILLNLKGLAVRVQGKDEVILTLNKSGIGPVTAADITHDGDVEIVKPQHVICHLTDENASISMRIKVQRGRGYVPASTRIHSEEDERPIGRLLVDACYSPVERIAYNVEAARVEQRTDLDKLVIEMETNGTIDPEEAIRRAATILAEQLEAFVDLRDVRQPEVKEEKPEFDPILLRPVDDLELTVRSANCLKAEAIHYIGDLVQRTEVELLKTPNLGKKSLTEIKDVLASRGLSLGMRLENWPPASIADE

[6] = tested on: Escherichia coli D21f2tolC; assay: MIC, spiral gradient endpoint assay, E. coli D21f2tolC; assay type: cell-based; conditions: Escherichia coli, D21F2TOLC, read-out: MIC E. coli D21f2toIC
[7] = tested on: Acinetobacter baumannii ATCC 19606; assay: MIC, spiral gradient endpoint assay, A. baumannii; assay type: cell-based; conditions: ATCC19606; Acinetobacter baumannii ATCC 19606
[8] = tested on: Staphylococcus aureus ATCC 12600; assay: MIC, spiral gradient endpoint assay, S. aureus ATCC 12600; assay type: cell-based; conditions: ATCC12600; Staphylococcus aureus ATCC 12600
[9] = tested on: Burkholderia mallei CHN7; assay: microbe, parasite or virus in culture; assay type: cell-based; conditions: Burkholderia mallei, CHN7, read-out: MIC B. mallei CHN7
[10] = tested on: Francisella tularensis SCHU4; assay: microbe, parasite or virus in culture; assay type: cell-based; conditions: Francisella tularensis, SCHU4, read-out: MIC F. tularensis SCHU4
[11] = tested on: Burkholderia pseudomallei Human/Blood/OH/US/1994; assay: microbe, parasite or virus in culture; assay type: cell-based; conditions: Burkholderia pseudomallei, read-out: MIC B. pseudomallei Human/Blood/OH

Structure (SMILES) | MIC [1] | MIC [2] | MIC [3] | MIC [4] | IC50 [5] | MIC [6] | MIC [7] | MIC [8] | MIC [9] | MIC [10] | MIC [11]
COC(=O)N/C=C/CCC(C)c1cc(O)c(C(=O)C(C)=Cc2ccc(Oc3ccc(C(F)(F)F)cc3)s2)c(=O)o1 (mixture of isomers) [APY119, methyl ((1E)-5-(4-hydroxy-3-(2-methyl-3-(5-(4-(trifluoromethyl)phenoxy)thiophen-2-yl)acryloyl)-2-oxo-2H-pyran-6-yl)hex-1-en-1-yl)carbamate] | 3 µg/mL | 3 µg/mL | > 50 µg/mL | 0.8 µg/mL | 6 nM | 0.1 µg/mL | > 40 µg/mL | 2 µg/mL | 3 µg/mL | 50 µg/mL | 6 µg/mL
COC(=O)N/C=C/CCC(C)c1cc(O)c(C(=O)C(C)=Cc2cc(Br)c(CC(C)C)s2)c(=O)o1 (mixture of isomers) [APY120, methyl ((1E)-5-(3-(3-(4-bromo-5-isobutylthiophen-2-yl)-2-methylacryloyl)-4-hydroxy-2-oxo-2H-pyran-6-yl)hex-1-en-1-yl)carbamate] | 3 µg/mL | 6 µg/mL | > 50 µg/mL | 2 µg/mL | 20 nM | 0.2 µg/mL | 30 µg/mL | 1 µg/mL | 6 µg/mL | 50 µg/mL | 10 µg/mL
CCCOc1ccc2c(c1)cc(C=C(C)C(=O)c1c(O)cc(C(C)CC/C=C/NC(=O)OC)oc1=O)n2C (mixture of isomers) [APY121, methyl ((1E)-5-(4-hydroxy-3-(2-methyl-3-(1-methyl-5-propoxy-1H-indol-2-yl)acryloyl)-2-oxo-2H-pyran-6-yl)hex-1-en-1-yl)carbamate] | > 50 µg/mL | > 50 µg/mL | > 50 µg/mL | > 50 µg/mL | 500 nM | 0.8 µg/mL | > 40 µg/mL | > 40 µg/mL | > 50 µg/mL | > 50 µg/mL | > 50 µg/mL
COC(=O)N/C=C/CCC(C)c1cc(O)c(C(=O)C(C)=Cc2cc3cc(OC(C)C)ccc3n2C)c(=O)o1 (mixture of isomers) [APY123] | > 50 µg/mL | > 50 µg/mL | > 50 µg/mL | > 50 µg/mL | 500 nM | 2 µg/mL | > 40 µg/mL | > 40 µg/mL | > 50 µg/mL | > 50 µg/mL | > 50 µg/mL
COC(=O)N/C=C/CCC(C)c1cc(O)c(C(=O)C(C)=Cc2sc(CC(C)C)cc2Br)c(=O)o1 (mixture of isomers) [APY124, methyl ((1E)-5-(3-(3-(3-bromo-5-isobutylthiophen-2-yl)-2-methylacryloyl)-4-hydroxy-2-oxo-2H-pyran-6-yl)hex-1-en-1-yl)carbamate] | 10 µg/mL | 6 µg/mL | 50 µg/mL | 0.2 µg/mL | 4 nM | 0.3 µg/mL | 6 µg/mL | 0.9 µg/mL | 10 µg/mL | 6 µg/mL | 30 µg/mL
COC(=O)N/C=C/CCC(C)c1cc(O)c(C(=O)C(C)=Cc2ccc(CC3CC3)s2)c(=O)o1 (mixture of isomers) [APY125, methyl ((1E)-5-(3-(3-(5-(cyclopropylmethyl)thiophen-2-yl)-2-methylacryloyl)-4-hydroxy-2-oxo-2H-pyran-6-yl)hex-1-en-1-yl)carbamate] | 6 µg/mL | 6 µg/mL | 10 µg/mL | 6 µg/mL | 40 nM | 0.6 µg/mL | 20 µg/mL | 1 µg/mL | 10 µg/mL | > 50 µg/mL | 50 µg/mL
COC(=O)N/C=C/CCC(C)c1cc(O)c(C(=O)C(C)=Cc2ccc(OCCC(F)(F)F)cc2)c(=O)o1 (mixture of isomers) [APY126, methyl ((1E)-5-(4-hydroxy-3-(2-methyl-3-(4-(3,3,3-trifluoropropoxy)phenyl)acryloyl)-2-oxo-2H-pyran-6-yl)hex-1-en-1-yl)carbamate] | 10 µg/mL | 30 µg/mL | 6 µg/mL | 3 µg/mL | 80 nM | 0.3 µg/mL | > 40 µg/mL | 1 µg/mL | 50 µg/mL | > 50 µg/mL | > 50 µg/mL
